US8513242B2, “Pyrimidine compounds and methods of making and using same” (Cystic Fibrosis Foundation Therapeutics, Inc., priority 2008, dated 2013)

How the values were obtained:
[1] = molecular target: T1, ΔF508 CFTR (Homo sapiens, UniProt P13569, DEL508-508); test: Dual corrector potentiator assay, corrector mode: FRT cell Ussing chamber short circuit current after 24 hours exposure to compound; assay type: cell-based; conditions: for EC50: FRT cell monolayers, 24 hours exposure, EC50 defined as concentration giving >25% increase in whole cell Cl− conductance vs DMSO at 37° C.; for Corrector Efficacy: ΔIcompound(forskolin+IBMX+genistein)/ΔIvehicle(forskolin+IBMX+genistein)
T1 construct: expressed in transfected cells; host or cells: FRT epithelial cells (Fischer rat thyroid)
T1 sequence (P13569 with tags, fused parts or gaps DEL508-508): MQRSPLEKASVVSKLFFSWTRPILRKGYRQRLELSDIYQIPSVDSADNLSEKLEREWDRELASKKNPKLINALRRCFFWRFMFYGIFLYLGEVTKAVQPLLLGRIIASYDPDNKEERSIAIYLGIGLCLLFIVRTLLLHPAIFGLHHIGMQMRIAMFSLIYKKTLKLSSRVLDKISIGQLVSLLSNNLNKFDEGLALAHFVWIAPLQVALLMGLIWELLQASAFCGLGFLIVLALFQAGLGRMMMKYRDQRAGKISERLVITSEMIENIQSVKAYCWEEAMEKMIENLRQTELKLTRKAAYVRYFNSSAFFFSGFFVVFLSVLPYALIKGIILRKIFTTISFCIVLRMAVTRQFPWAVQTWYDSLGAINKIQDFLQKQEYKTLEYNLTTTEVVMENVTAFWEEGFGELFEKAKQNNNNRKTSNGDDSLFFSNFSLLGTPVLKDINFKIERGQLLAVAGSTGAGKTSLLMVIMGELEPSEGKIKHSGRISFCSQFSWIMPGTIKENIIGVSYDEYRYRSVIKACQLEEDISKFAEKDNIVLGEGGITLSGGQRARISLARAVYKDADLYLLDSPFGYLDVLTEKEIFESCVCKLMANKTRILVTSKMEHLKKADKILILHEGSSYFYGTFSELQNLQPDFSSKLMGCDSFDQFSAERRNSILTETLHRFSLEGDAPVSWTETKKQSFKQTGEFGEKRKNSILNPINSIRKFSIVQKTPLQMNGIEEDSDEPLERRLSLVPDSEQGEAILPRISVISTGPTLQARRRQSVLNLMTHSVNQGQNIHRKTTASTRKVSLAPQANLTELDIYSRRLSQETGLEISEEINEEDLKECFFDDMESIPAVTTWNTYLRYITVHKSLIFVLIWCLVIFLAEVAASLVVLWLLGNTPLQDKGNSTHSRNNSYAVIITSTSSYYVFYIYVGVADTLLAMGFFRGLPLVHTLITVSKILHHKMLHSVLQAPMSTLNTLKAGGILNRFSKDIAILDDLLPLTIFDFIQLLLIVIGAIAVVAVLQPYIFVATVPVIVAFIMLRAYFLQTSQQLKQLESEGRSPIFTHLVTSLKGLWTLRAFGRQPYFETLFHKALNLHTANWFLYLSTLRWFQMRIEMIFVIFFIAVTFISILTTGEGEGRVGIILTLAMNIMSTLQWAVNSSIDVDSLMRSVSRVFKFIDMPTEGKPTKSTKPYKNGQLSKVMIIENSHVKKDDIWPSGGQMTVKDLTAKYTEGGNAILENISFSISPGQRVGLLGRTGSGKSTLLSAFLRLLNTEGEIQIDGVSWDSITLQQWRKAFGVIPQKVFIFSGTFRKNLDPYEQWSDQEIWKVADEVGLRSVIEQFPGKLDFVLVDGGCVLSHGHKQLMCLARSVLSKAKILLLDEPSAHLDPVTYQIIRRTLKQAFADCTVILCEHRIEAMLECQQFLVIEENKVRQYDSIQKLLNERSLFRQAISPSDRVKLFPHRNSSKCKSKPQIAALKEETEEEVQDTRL
Experimental: (§1) FRT epithelial cell monolayers were grown on Snapwell filter inserts and optionally treated with a reference corrector N-(2-(5-chloro-2-methoxyphenylamino)-4′-methyl-4,5′-bithiazol-2′-yl)benzamide. The cells were exposed to a compound of the invention for 24 hours prior to the assay. The inserts were transferred to a Navicyte Ussing recording chamber and superfused with a HEPES buffered physiological saline (HB-PS) with composition (in mM): NaCl, 137; KCl, 4.0; CaCl2, 1.8; MgCl2, 1; HEPES, 10; Glucose, 10; pH adjusted to 7.4 with NaOH. The mucosal solution was 10CF-PS (composition in mM: Na-gluconate, 137; KCl, 4; CaCl2, 1.8; MgCl2, 1; HEPES, 10; Mannitol, 10; pH adjusted to 7.4 with N-methyl-D-glucamine) to create a transepithelial Cl ion gradient. A Physiologic Instruments VCC MC6 epithelial voltage clamp (Physiologic Instruments, Inc., San Diego, Calif.) was used to record the short circuit current (ISC).
(§2) Inserts were voltage clamped at 0 mV to measure the ISC. 10CF-PS solution (5 ml) was added to the mucosal (top) side of the Snapwell filter and HB-PS solution (5 mL) was added to the serosal (bottom) side of the Snapwell filter insert to permeabilize the serosal membrane. Solution additions and replacements in the Navicyte chambers were performed in a way to maintain a hydrostatic pressure gradient from mucosal to serosal sides of the filters by maintaining a solution level greater or equal in the mucosal chamber relative to the serosal chamber during solution changes. After acquisition of at least 10 minutes of baseline current, agonists (final concentrations: 10 μM forskolin, 100 μM 3-isobutyl-1-methylxanthine [IBMX] and 20 μM genistein) and antagonist (final concentration: 10 μM CFTRinh-172) were applied sequentially and cumulatively at 10 minute intervals for forskolin and IBMX, and at 15 minute intervals for genistein and CFTRinh-172, to both serosal and mucosal epithelial surfaces.
(§3) Agonists were prepared as 200×-1000× concentrated solutions in HP-PS and 10CF-PS. Agonist stocks prepared in HB-PS were added to the serosal surface, while agonist stocks prepared in 10CF-PS were added to the mucosal surface. In potentiator assays, appropriate volumes from 10 mM test compound solution in DMSO were added to the mucosal 10CF-PS solution. Agonists were diluted to the final working concentration in the Navicyte chamber by removal of chamber solution and addition of the concentrated stock solution. Order of solution removal was serosal then mucosal and for solution additions mucosal then serosal in order to maintain a hydrostatic pressure gradient from mucosal to serosal during solution changes. Transepithelial resistance was monitored every 20 s with 10 mV voltage steps.
(§4) EC50 values are defined as the concentration of compound that gives a >25% increase in whole cell Cl^− conductance (compared to DMSO at 37° C. as a vehicle) at 10 μM. The corrector efficacy was measured as a percentage change in agonist+compound vs. agonist: ΔIcompound(forskolin+IBMX+genistein)/ΔIvehicle(forskolin+IBMX+genistein). The potentiator efficacy was measured as a percentage change in forskolin activity: ΔI(forskolin+compound)/ΔI(forskolin+IBMX+genistein).

[2] = molecular target: T1, ΔF508 CFTR; test: Dual corrector potentiator assay, potentiator mode: FRT cell Ussing chamber short circuit current, compound added to mucosal solution; assay type: cell-based; conditions: for Potentiator Efficacy: ΔI(forskolin+compound)/ΔI(forskolin+IBMX+genistein)
Experimental: as §1, §2, §3, §4

[3] = pretreatment of cells not given
[4] = ** cells treated with reference corrector N-(2-(5-chloro-2-methoxyphenylamino)-4′-methyl-4,5′-bithiazol-2′-yl)benzamide

EC50 [1] [µM]	Corrector Efficacy [1]	EC50 [2, 3] [µM]	Potentiator Efficacy [2, 3]	EC50 [2, 4] [µM]	Potentiator Efficacy [2, 4]	EC50 ([2]; * vehicle treated cells) [µM]	Potentiator Efficacy ([2]; * vehicle treated cells)	Structure (SMILES)
> 10	+++ (+++=>3)							C[C@H]1CC[C@@H](Nc2ncc(-c3ccc(OCC#N)cc3)c(OC3CCOC3)n2)CC1 (some centres unmarked) [Example 150, 2-(4-(2-((1s,4s)-4-methylcyclohexylamino)-4-(tetrahydrofuran-3-yloxy)pyrimidin-5-yl)phenoxy)acetonitrile]
		< 3	++ (++=0.3-0.6)					COc1nc(N[C@H]2CC[C@@H](C)CC2)ncc1-c1ccc(OC(C)C)cc1 [Example 102, 5-(4-isopropoxyphenyl)-4-methoxy-N-((1s,4s)-4-methylcyclohexyl)pyrimidin-2-amine]
> 20	+++ (+++=>3)							C[C@H]1CC[C@@H](Nc2ncc(-c3ccc(OCC#N)cc3)c(OCC3CC3)n2)CC1 [Example 133, 2-(4-(4-(cyclopropylmethoxy)-2-((1s,4s)-4-methylcyclohexylamino)pyrimidin-5-yl)phenoxy)acetonitrile]
< 10	+++ (+++=>3)			< 3	+++** (+++=>0.6)			COc1nc(N[C@H]2CC[C@@H](C)CC2)ncc1-c1ccc(OC(F)(F)F)cc1 [Example 58, 4-methoxy-N-((1s,4s)-4-methylcyclohexyl)-5-(4-(trifluoromethoxy)phenyl)pyrimidin-2-amine]
< 10	+++ (+++=>3)							COc1nc(N[C@H]2CC[C@@H](C)CC2)ncc1-c1ccc(OC(C)C)nc1 [Example 118, 5-(6-isopropoxypyridin-3-yl)-4-methoxy-N-((1s,4s)-4-methylcyclohexyl)pyrimidin-2-amine]
		< 3	++ (++=0.3-0.6)					COc1nc(N[C@H]2CC[C@@H](C)CC2)ncc1-c1ccc(OC(F)(F)F)cc1 [Example 103, 4-methoxy-N-((1s,4s)-4-methylcyclohexyl)-5-(4-(trifluoromethoxy)phenyl)pyrimidin-2-amine]
< 10	+++ (+++=>3)			< 3	++** (++=0.3-0.6)			COc1ccc(-c2cnc(N[C@H]3CC[C@@H](C)CC3)nc2)cc1 [Example 27, 5-(4-methoxyphenyl)-N-((1s,4s)-4-methylcyclohexyl)pyrimidin-2-amine]
		< 3	++ (++=0.3-0.6)					COc1nc(N[C@H]2CC[C@@H](C)CC2)ncc1-c1ccnc(C#N)c1 [Example 143, 4-(4-methoxy-2-((1s,4s)-4-methylcyclohexylamino)pyrimidin-5-yl)picolinonitrile]
< 10	+++ (+++=>3)			< 3	+++** (+++=>0.6)			C[C@H]1CC[C@@H](Nc2ncc(-c3ccc(OC(F)F)cc3)cn2)CC1 [Example 19, 5-(4-(difluoromethoxy)phenyl)-N-((1s,4s)-4-methylcyclohexyl)pyrimidin-2-amine]
		< 3	++ (++=0.3-0.6)					COc1nc(N[C@H]2CC[C@@H](C)CC2)ncc1-c1ccc(OC(F)F)cc1 [Example 104, 5-(4-(difluoromethoxy)phenyl)-4-methoxy-N-((1s,4s)-4-methylcyclohexyl)pyrimidin-2-amine]
< 10	+++ (+++=>3)			< 3	+++** (+++=>0.6)	< 3	+++* (+++=>0.6)	C[C@H]1CC[C@@H](Nc2ncc(-c3ccc(OC(F)(F)F)cc3)cn2)CC1 [Example 4, N-((1S,4S)-4-Methylcyclohexyl)-5-(4-(trifluoromethoxy)phenyl)pyrimidin-2-amine]
< 10	+++ (+++=>3)			< 3	+++** (+++=>0.6)			CC(C)Oc1ccc(-c2cnc(N[C@H]3CC[C@@H](C)CC3)nc2)cc1 [Example 23, 5-(4-isopropoxyphenyl)-N-((1s,4s)-4-methylcyclohexyl)pyrimidin-2-amine]
> 20	+++ (+++=>3)							COc1nc(N[C@H]2CC[C@@H](C)CC2)ncc1-c1ccc(OCC#N)cc1 [Example 125, 2-(4-(4-methoxy-2-((1s,4s)-4-methylcyclohexylamino)pyrimidin-5-yl)phenoxy)acetonitrile]
~10	+++ (+++=>3)							C[C@H]1CC[C@@H](Nc2ncc(-c3ccc4c(c3)OCCO4)c(O[C@@H]3CCOC3)n2)CC1 [Example 201, 5-(2,3-dihydrobenzo[b][1,4]dioxin-6-yl)-N-((1s,4S)-4-methylcyclohexyl)-4-((R)-tetrahydrofuran-3-yloxy)pyrimidin-2-amine]
< 10	+++ (+++=>3)							COc1nc(N[C@H]2CC[C@@H](C)CC2)ncc1-c1ccc(N2CCCCC2)nc1 [Example 119, 4-methoxy-N-((1s,4s)-4-methylcyclohexyl)-5-(6-(piperidin-1-yl)pyridin-3-yl)pyrimidin-2-amine]
< 10	+++ (+++=>3)			< 3	++** (++=0.3-0.6)			COc1nc(N[C@H]2CC[C@@H](C)CC2)ncc1-c1ccc(OC(F)F)cc1 [Example 59, 5-(4-(difluoromethoxy)phenyl)-4-methoxy-N-((1s,4s)-4-methylcyclohexyl)pyrimidin-2-amine]
< 10	+++ (+++=>3)			< 10	++** (++=0.3-0.6)			COc1nc(N[C@H]2CC[C@@H](C)CC2)ncc1-c1ccc(OC(C)C)cc1 [Example 7, 5-(4-Isopropoxyphenyl)-4-methoxy-N-((1S,4S)-4-methylcyclohexyl)pyrimidin-2-amine]
